Patent publication US20080248574A1, “ANTAGONISTS OF THE INTERACTION OF MELANOMA INHIBITORY ACTIVITY (MIA) AND P66SHC” (University of Pittsburgh - Of the Commonwealth System of …, priority 2007, published 2008)
Ends that are not written are not given here.

Legend:
[1] = tested on: HMB2 melanoma cells; experiment: H2O2-induced cell death in HMB2 cells, cell viability by MTT absorbance; format: cell-based, human; details: 20 μM polypeptide; 50 μM H2O2 two hours later; viability after 24 hours; versus H2O2-treated cells in the absence of polypeptide; p<0.05; FIG. 1
Experimental: FIG. 1 is a graph showing the percentage of cell viability measured by MTT absorbance in HMB2 melanoma cells that were treated with a polypeptide comprising SEQ ID NO: 1 and SEQ ID NO: 2 (TAT-peptide) and H2O2.
To determine the effect of the administration of a polypeptide comprising SEQ ID NO: 1 on H2O2-induced cell death, HMB2 cells were administered 20 μM of the polypeptide. Two hours following the polypeptide administration, the cells were treated with 50 μM of H2O2. After 24 hours, the cell viability was quantified using MTT absorbance.

[2] = tested on: MIA-expressing HMB2 human metastatic melanoma cells; experiment: Entry of FITC-labeled polypeptide into HMB2 cells (phase contrast and image capture); format: cell-based; details: 10 μM FITC-labeled polypeptide, 2.5 hours after addition
Experimental: The ability of a polypeptide comprising SEQ ID NO: 4 to enter and sensitize MIA-expressing HMB2 human metastatic melanoma cells to oxidative stress-induced death was examined. Cells were treated with 10 μM FITC-labeled polypeptide, followed by phase contrast and image capture.

Substance | sensitivity of H2O2-treated cells to H2O2-death (cell viability, MTT absorbance) [1] | transduction of cells with the peptide [2]
polypeptide comprising SEQ ID NO: 1: Polypeptide comprising residues 41-60 of the p66shc CH2 domain (SEQ ID NO: 1) and HIV TAT (SEQ ID NO: 2) (SLGPILPPLPGDDSPTTLCSYGRKKRRQRR) | significantly increased | –
polypeptide comprising SEQ ID NO: 4: Polypeptide comprising a BRR domain (HIV TAT), spacer and CH2 domain portion of p66shc; FITC-labeled in the test (YGRKKRRQRRGGGSLGPILPPLPGDDSPTTLCS; also: FITC label, position not given here) | – | the majority of the cells were transduced
